Reference: patent US9278940B2, “Cyclic amines as bromodomain inhibitors” (Zenith Epigenetics Corp., priority 2012, dated 2016)
Counter-ions that a name gives are not always drawn.

Legend:
c-myc = experiment: Inhibition of c-myc expression (mRNA, real-time PCR) in MV4-11 cells; format: cell-based; set-up: key: Active: Compounds with an IC50 value less than 30 μM were deemed to be active.; Not Active: Compounds with an IC50 value less than 30 μM were deemed to be active; conditions: Human AML MV4-11 cells, 3 hours
Procedure: MV4-11 cells (2.5×10^4 cells) were plated in 96 well U-bottom plates with test compound or DMSO (0.1%), and incubated for 3 hours at 37° C. Cells were then harvested by centrifugation, lysed, and mRNA was isolated using the mRNA catcher plus kit (Invitrogen). Reverse transcription of the mRNA and duplex amplification of the c-myc and cyclophilin cDNAs was performed using the RNA Ultrasense kit (Invitrogen) and a ViiA7 real-time PCR machine (Applied Biosystems). IC50 values were determined from a dose response curve.

hIL-6 mRNA = experiment: Inhibition of hIL-6 mRNA transcription in LPS-stimulated U937 macrophages; format: cell-based, human; set-up: key: Active: Compounds with an IC50 value less than 30 μM are deemed to be active.; Not Active: Compounds with an IC50 value less than 30 μM are deemed to be active; conditions: U937 cells differentiated with PMA, 1 h pretreatment, LPS 3 h
Procedure: In this example, hIL-6 mRNA in tissue culture cells was quantitated to measure the transcriptional inhibition of hIL-6 when treated with a compound of the present disclosure.
A human leukemic monocyte lymphoma cell line (U937) was plated (3.2×10^4 cells per well) in a 96-well plate in […] RPMI-1640 containing 10% FBS and penicillin/streptomycin, and differentiated into macrophages for 3 days in 60 ng/mL PMA ([…]) at 37° C. in 5% CO2 prior to the addition of the compound of interest. The cells were pretreated for 1 h with the test compound prior to stimulation with 1 ug/mL lipopolysaccharide from Escherichia coli. The cells were incubated at 37-C for 3 h before the cells were harvested. At time of harvest, the spent media was removed from the cells and the cells were rinsed in 200 μL PBS. Cell lysis solution (70 μL) was added the cells in each well and incubated for 5-10 min at room temperature, to allow for complete cell lysis and detachment. mRNA was then prepared using the “mRNA Catcher PLUS plate” (Invitrogen), according to the protocol supplied. After the last wash, as much wash buffer as possible was aspirated without allowing the wells to dry. Elution buffer (E3, 70 μL) was then added to each well. mRNA was then eluted by incubating the mRNA Catcher PLUS plate with Elution Buffer for 5 min at 68° C. and then immediately placing the plate on ice.
The eluted mRNA isolated was then used in a one-step quantitative real-time PCR reaction, using components of the Ultra Sense Kit together with Applied Biosystems primer-probe mixes. Real-time PCR data was analyzed, normalizing the Ct values for hIL-6 to an internal control, prior to determining the fold induction of each unknown sample, relative to the control.

Brd4 bromodomain 1 = biological target: T1, Brd4 bromodomain 1 (Homo sapiens, UniProt O60885); experiment: Inhibition of tetra-acetylated histone H4 binding to BET bromodomain (TR-FRET); set-up: key: Active: Compounds with an IC50 value less than 30 μM were deemed to be active.; Not Active: Compounds with an IC50 value less than 30 μM were deemed to be active; conditions: Brd4 bromodomain 1, tetra-acetylated histone H4 peptide
T1 construct: made in house; host or cells: E. coli BL21(DE3)
Procedure: Proteins were cloned and overexpressed with a N-terminal 6×His tag, then purified by nickel affinity followed by size exclusion chromatography. Briefly, E. coli BL21(DE3) cells were transformed with a recombinant expression vector encoding N-terminally Nickel affinity tagged bromodomains from Brd2, Brd3, Brd4. Cell cultures were incubated at 37° C. with shaking to the appropriate density and induced overnight with IPTG. The supernatant of lysed cells was loaded onto Ni-IDA column for purification. Eluted protein is pooled, concentrated and further purified by size exclusion chromatography. Fractions representing monomeric protein were pooled, concentrated, aliquoted, and frozen at −80° C. for use in subsequent experiments.
Binding of tetra-acetylated histone H4 and BET bromodomains was confirmed by a Time Resolved Fluorescence Resonance Energy Transfer (TR-FRET) method. N-terminally His-tagged bromodomains (200 nM) and biotinylated tetra-acetylated histone H4 peptide (25-50 nM, Millipore) were incubated in the presence of Europium Cryptate-labeled streptavidin (Cisbio Cat. #610SAKLB) and XL665-labeled monoclonal anti-His antibody (Cisbio Cat. #61HISXLB) in a white 96 well microtiter plate (Greiner). For inhibition assays, serially diluted test compound was added to these reactions in a 0.2% final concentration of DMSO. Final buffer concentrations were 30 mM HEPES pH 7.4, 30 mM NaCl, 0.3 mM CHAPS, 20 mM phosphate pH 7.0, 320 mM KF, 0.08% BSA). After 2 hours incubation at room temperature, the fluorescence by FRET was measured at 665 and 620 nm by a SynergyH4 plate reader (Biotek). The binding inhibitory activity was shown by a decrease in 665 nm fluorescence relative to 620 nm. IC50 values were determined from a dose response curve.

hApoA-1 mRNA = experiment: Up-regulation of hApoA-1 mRNA transcription in Huh7 cells; format: cell-based, human; set-up: key: Active: Compounds with an EC170 value less than 30 μM are deemed to be active.; Not Active: Compounds with an EC170 value less than 30 μM are deemed to be active; conditions: 48 hrs treatment, ApoA-I mRNA
Procedure: In this example, ApoA-I mRNA in tissue culture cells was quantitated to measure the transcriptional up-regulation of ApoA-I when treated with a compound of the present disclosure.
Huh7 cells ([…] per well) were plated in a 96-well plate using 100 μL DMEM per well, (Gibco DMEM supplemented with penicillin/streptomycin and 10% FBS), 24 h before the addition of the compound of interest. After 48 hrs treatment, the spent media was removed from the Huh-7 cells and placed on ice (for immediate use) or at −80° C. (for future use) with the “LDH cytotoxicity assay Kit II” from Abcam. The cells remaining in the plate were rinsed with 100 μL PBS.
Then 85 μL of cell lysis solution was added to each well and incubated for 5-10 minutes at room temperature, to allow for complete cell lysis and detachment. mRNA was then prepared using the “mRNA Catcher PLUS plate” from Life Technologies, according to the protocol supplied. After the last wash, as much wash buffer as possible was aspirated without allowing the wells to dry. Elution Buffer (E3, 80 μL) was then added to each well. mRNA was then eluted by incubating the mRNA Catcher PLUS plate with Elution Buffer for 5 minutes at 68° C., and then 1 minute at 4° C. Catcher plates with mRNA eluted were kept on ice for use or stored at −80° C.
The eluted mRNA isolated was then used in a one-step real-time PCR reaction, using components of the Ultra Sense Kit together with Life Technologies primer-probe mixes. Real-time PCR data was analyzed, using the Ct values, to determine the fold induction of each unknown sample, relative to the control (that is, relative to the control for each independent DMSO concentration).
Compounds with an EC170 value less than 30 μM are deemed to be active.

Human AML MV-4-11 cells = experiment: Inhibition of cell proliferation in MV4-11 cells; format: cell-based; set-up: key: Active: Compounds with an IC50 value less than 30 μM are deemed to be active.; Not Active: Compounds with an IC50 value less than 30 μM are deemed to be active; conditions: 72 hours
Procedure: MV4-11 cells: 96-well plates were seeded with 5×10^4 cells per well of exponentially growing human AML MV-4-11 (CRL-9591) cells and immediately treated with two-fold dilutions of test compounds, ranging from 30 μM to 0.2 μM. Triplicate wells were used for each concentration, as well as a media only and three DMSO control wells. The cells and compounds were incubated at 37° C., 5% CO2 for 72 hours before adding 20 μL of the CellTiter Aqueous One Solution (Promega) to each well and incubating at 37° C., 5% CO2 for an additional 3-4 hours. The absorbance was taken at 490 nm in a spectrophotometer and the percentage of proliferation relative to DMSO-treated cells was calculated after correction from the blank well. IC50 were calculated using the GraphPad Prism software.

| c-myc activity (IC50 < 30 μM) (c-myc) | IL-6 activity (IC50 < 30 μM) (hIL-6 mRNA) | FRET activity (IC50 < 30 μM) (Brd4 bromodomain 1) | cell proliferation activity (IC50 < 30 μM) (Human AML MV-4-11 cells) | Compound | ApoA-1 activity (EC170 < 30 μM) (hApoA-1 mRNA) |
| --- | --- | --- | --- | --- | --- |
| Active | Active | Active | Active | COc1cc(OC)c2c(=O)[nH]c(-c3cc(Cl)cc(N4CCN(C(C)C)CC4)c3)nc2c1 [Example 32, 2-(3-Chloro-5-(4-isopropylpiperazin-1-yl)phenyl)-5,7-dimethoxyquinazolin-4(3H)-one] | Active |
| Active | Not Active | Active | Active | COc1cc(N2CCN(C(C)C)CC2)cc2nc(-c3cccc(N4CCN(C(C)C)CC4)n3)[nH]c(=O)c12 [Example 23, 7-(4-Isopropylpiperazin-1-yl)-2-(6-(4-isopropylpiperazin-1-yl)pyridin-2-yl)-5-methoxyquinazolin-4(3H)-one Hydrochloride] |  |
| Active | Active | Active | Active | COc1cc(OC)c2c(=O)[nH]c(-c3cccc(N4CCN(C(=O)NC(C)C)CC4)n3)nc2c1 [Example 27, 4-(6-(5,7-Dimethoxy-4-oxo-3,4-dihydroquinazolin-2-yl)pyridin-2-yl)-N-isopropylpiperazine-1-carboxamide Hydrochloride] |  |
| Not Active | Active | Not Active | Not Active | COc1cc(OC)c2c(=O)[nH]c(-c3cccc(N4CCN(C)C(=O)C4)n3)nc2c1 [Example 30, 5,7-Dimethoxy-2-(6-(4-methyl-3-oxopiperazin-1-yl)pyridin-2-yl)quinazolin-4(3H)-one] |  |
|  | Not Active | Active |  | COc1cc(-c2ccccc2)cc2nc(-c3cccc(N4CCN(C(C)C)CC4)n3)[nH]c(=O)c12 [Example 25, 2-(6-(4-Isopropylpiperazin-1-yl)pyridin-2-yl)-5-methoxy-7-phenylquinazolin-4(3H)-one] |  |
| Not Active | Active | Active | Not Active | COc1cc(OC)c2c(=O)[nH]c(-c3cccc(N4CCOCC4)n3)nc2c1 [Example 16, 5,7-Dimethoxy-2-(6-morpholinopyridin-2-yl)quinazolin-4(3H)-one Hydrochloride] |  |
|  |  | Not Active |  | COc1cc(OC)c2c(=O)[nH]c(-c3cccc(N4CCN(C(C)C)CC4=O)n3)nc2c1 [Example 28, 2-(6-(4-Isopropyl-2-oxopiperazin-1-yl)pyridin-2-yl)-5,7-dimethoxyquinazolin-4(3H)-one Hydrochloride] | Not Active |
| Active | Active | Active | Active | COc1cc(OCc2ccccc2)cc2nc(-c3cccc(N4CCN(C(C)C)CC4)n3)[nH]c(=O)c12 [Example 22, 7-(Benzyloxy)-2-(6-(4-isopropylpiperazin-1-yl)pyridin-2-yl)-5-methoxyquinazolin-4(3H)-one Hydrochloride] |  |
|  | Not Active | Not Active |  | COc1cc(OC)c2c(=O)[nH]c(-c3cccc(N4CCN(S(C)(=O)=O)CC4)n3)nc2c1 [Example 18, 5,7-Dimethoxy-2-(6-(4-(methylsulfonyl)piperazin-1-yl)pyridin-2-yl)quinazolin-4(3H)-one Hydrochloride] |  |
| Active | Active | Active | Active | COc1cc(F)cc2nc(-c3cccc(N4CCN(C(C)C)CC4)n3)[nH]c(=O)c12 [Example 21, 7-Fluoro-2-(6-(4-isopropylpiperazin-1-yl)pyridin-2-yl)-5-methoxyquinazolin-4(3H)-one Hydrochloride] |  |
| Not Active | Active | Active | Not Active | COc1cc(OC)c2c(=O)[nH]c(-c3cc(OC(F)(F)F)cc(N4CCN(C(C)C)CC4)c3)nc2c1 [Example 20, 2-(3-(4-Isopropylpiperazin-1-yl)-5-(trifluoromethoxy)phenyl)-5,7-dimethoxyquinazolin-4(3H)-one] |  |
| Not Active | Not Active | Active | Not Active | COc1ccc(OCc2ccccc2)c2nc(-c3cccc(N4CCN(C(C)C)CC4)c3)[nH]c(=O)c12 [Example 26, 8-(Benzyloxy)-2-(3-(4-isopropylpiperazin-1-yl)phenyl)-5-methoxyquinazolin-4(3H)-one] |  |
